Data published in article PMC5762338, “A novel orally available Syk/Src/Jak2 inhibitor, SKLB-850, showed potent anti-tumor activities in B cell lymphoma (BCL) models” (Oncotarget, 2017).

Tests used:
[1] = test system: Ramos xenograft; assay: Ramos xenograft mouse model; assay type: in vivo, NOD/SCID mice
Procedure: The in vivo anti-BCL effects of SKLB-850 were investigated in the Ramos and HBL xenograft mouse models with R788 being taken as a positive control. The animals were treated orally once daily for 21 days (Ramos model) or 36 days (HBL-1 model).
All animal studies were conducted according to the guidelines of the Animal Care and Use Committee of Sichuan University (Permit Number: 20121205, Chengdu, Sichuan, China). Ramos and HBL-1 tumor cells were established by subcutaneously injecting 1×10^7 cells (100μL) into the hind flank region of 7–8 week old female NOD/SCID mice (ICR, NOD/SCID). When tumors reached a volume of ∼200 mm^3, mice were randomly divided into different groups (6 per group), and SKLB-850 (40 mg/kg, 20mg/kg) or vehicle (5% DMSO, 25% PEG400, and 70% waters) were given once daily by oral gavage. Tumor growth and body weight were measured every three days or every day during the treatment. Tumor volumes were calculated using the formula as follow: tumor volume (mm^3) = 0.5× length (mm) × width (mm) ^2. Studies were typically terminated when tumors in vehicle treated animals reached an average size of 2,000 mm^3. Solid tumors were removed and processed for immunohistochemical analysis and terminal deoxynucleotidyl transferase-mediated dUTP nick end labeling (TUNEL) assay.

[2] = test system: Ramos cells; assay: Apoptosis assay, AnnexinV-FITC/propidium iodide FCM; assay type: cell-based, Human; conditions: treatment for 18 hours
Procedure: Figure 1 The chemical structure of SKLB-850 and its anti-tumor effects in vitro (A) The chemical structure of SKLB-850. (B and C) Apoptosis of Ramos cells induced by SKLB-850. Cells were treated by vehicle, R788 or indicated concentrations of compounds. After 18 hours, Cell were harvested and stained with AnnexinV-FITC and propidium iodide, then the apoptosis cells were analyzed by FCM. (D and E) Apoptosis of HBL-1 cells induced by SKLB-850. Cells were treated by vehicle, R788 or indicated concentrations of compounds. After 24 hours, Cell were harvested and stained with AnnexinV-FITC and propidium iodide, then the apoptosis cells were analyzed by FCM. […] Columns, mean; bars, SD. ^##P<0.01, or ^#P<0.05, SKLB-850 group versus vehicle group. […]
The ability of SKLB-850 to induce apoptosis of BCL cells was analyzed by FCM. […]
Flow cytometry (FCM) assays were performed to investigate the apoptosis of Ramos and HBL-1 cells induced by SKLB-850. […] Cell apoptosis was analyzed with a flow cytometer (BD FACSCalibur, BD, USA).

SMILES: COc1cc(Nc2ncc(F)c(Nc3ccc4c(n3)N(COP(=O)(O)O)C(=O)C(C)(C)O4)n2)cc(OC)c1OC [R788, reference compound]
- anti-tumor effect (in words) ([1]; positive control, orally once daily): some anti-tumor effect
- percentages of apoptotic cells (in words) [2]: induced apoptosis but obviously much weaker

SMILES: CN1CCN(c2ccc(Nc3ncc(F)c(Nc4ccc(Cl)cc4C(N)=O)n3)cc2)CC1 [SKLB-850, 5-chloro-2-((5-fluoro-2-((4-(4-methylpiperazin-1-yl)phenyl)amino)pyrimidin-4-yl)amino) benzamide]
- tumor inhibition rate ([1]; 20 mg/kg orally once daily for 21 days): 73.65% ± 21.22%
- tumor inhibition rate ([1]; 40 mg/kg orally once daily for 21 days): 78.82% ± 9.35%
- percentages of apoptotic cells (in words) [2]: dose-dependently increased
